Entries after “also recorded” stand apart in the source; their conditions may differ. Where two headings read alike, the source gives them in different places.

One series has as its target muscarinic receptor M3 (Homo sapiens, UniProt P20309). Briefly: Receptor binding.
For series [1], the system named is isolated rabbit Purkinje fibers. Briefly: Action potential of isolated rabbit Purkinje fibers. From the text:
Further assessment in rabbit Punkinje fibers was undertaken to directly measure concentration-dependent changes in action potential induced by ICI-735.

For series [2], the system named is BALB/c mice, Af-induced allergic airway inflammation and hyperresponsiveness. Briefly: Murine Aspergillus fumigatus (Af)-induced asthma model, methacholine-induced lung resistance / airway hyperresponsiveness. The format is in vivo, mouse. From the text:
The following experiments were designed to test the efficacy of the compounds of the invention on a murine asthma model. A murine model of Aspergillus fumigatus (Af)-induced allergic airway inflammation and hyperresponsiveness was adapted from Haczku et al. (2001 Am. J. Respir. Cell Mol. Biol. 25: 45-50) to determine the activity of the candicate compounds (FIG. 2).
Briefly, BALB/c mice were sensitized intraperitoneally and challenged intranasally with Af extract as a form of a type of allergen challenge in the presence or absence of dexamethasone. With respect to sensitization, “naïve” mice received intranasal vehicle challenges only, with phosphate-buffered saline (PBS) where as “sensitized’ mice were injected intraperitoneally with 25 μg Af together with alum in 100 μl of PBS on days 1 and 14, followed by intranasal challenge on days 25, 26, and 27 with 25 μg of Af extract in 40 PBS μl in the presence or absence of dexamethasone (2.5 mg/kg in 100 μl saline). On day 28, sensitized mice were treated with the test compound (0.1, 1.0, 10 mg/kg) either one hour before or simultaneously with methacholine challenge (2.5, 5, 10, 20 mg/mL). Methacholine challenge is to induce airway constriction.
The following experiments were designed to test the efficacy of the compounds of the invention on a murine asthma model. A murine model of Aspergillus fumigatus (Af)-induced allergic airway inflammation and hyperresponsiveness was adapted from Haczku et al. (2001 Am. J. Respir. Cell Mol. Biol. 25: 45-50) to determine the activity of the eradicate compounds (FIG. 11).
Briefly, BALB/c mice were sensitized intraperitoneally and challenged intranasally with Af extract as a form of a type of allergen challenge in the presence or absence of dexamethasone. With respect to sensitization, “naïve” mice received intranasal vehicle challenges only, with phosphate-buffered saline (PBS) where as “sensitized’ mice were injected intraperitoneally with 25 μg Af together with alum in 100 μl of PBS on days 1 and 14, followed by intranasal challenge on days 25, 26, and 27 with 25 μg of Af extract in 40 PBS μl in the presence or absence of dexamethasone (2.5 mg/kg in 100 μl saline) in combination with either o.g. treatment with ICI-735 (1 mg/kg or 10 mg/kg) or i.p. treatment with ICI-735 1 mg/kg. On day 28, sensitized mice were treated with methacholine challenge (2.5, 5, 10, 20 mg/mL). Methacholine challenge is to induce airway constriction.
With respect to the murine model of allergen induced AHR, BALB/c mice were sensitized and challenged via intranasal instillation of Aspergillus fumigatus (Af). […] Four hours after the last allergen challenge, airway function was assessed by flexivent. […]

The test system of the next series is MPR1-MDCK. Briefly: MPR1-MDCK permeability, potential to cross the blood-brain barrier. The format is in vitro ADME. The settings on record: from A-B Papp and efflux ratio. From the text: (§1) A criterion for selecting an agent for proceeding to clinical trials is whether the compound crosses the blood-brain barrier. […] Fluphenazine (ICI-01175) is used as a control compound that has the potential to cross the blood-brain barrier. Table 1 summarizes the results of the test compounds for their potential to cross the blood-brain barrier.

Experiment in series [3]: as above
The settings on record: dog, MDCK. It is filed as in vitro ADME.
Description: as §1

Another series deals with human small airway. Briefly: Human precision-cut lung slices (PCLS), small airway contraction. The following applies: for CCh-induced bronchoconstriction after pretreatment of lung slices: C-027 10^−5 M, formoterol 0.3 nM. The protocol: Human precision-cut lung slices (PCLS) permit evaluation of pharmacological responses of novel drug candidates applied directly to their target tissue.
Human precision-cut lung slices (PCLS, 250 μm thick) containing a small airway were contracted to carbachol, histamine and passively sensitization to induce airway closure±pre-incubation with ICI-735 (10 μM; 2 hours); FIG. 13. For example, human lung slices containing a small airway were incubated overnight with either negative control IgG (4 μg/mL) or positive control IgE (4 μg/mL). The slices were tested as follows: 1) IgG+anti-IgE; 2) IgE+anti-IgE; 3) IgE+Dexamethasone (1 μM)+anti-IgE; and 4) IgE+ICI-735 (10 μM) +anti-IgE. Dexamethasone and ICI-735 were pre-incubated 2 hours prior to anti-IgE; anti-IgE is used to crosslink antibodies and induce mast cell degranulation, which is believed to release histamine and cause airway contract. […]
Human lung tissue contains multiple cell types, including mast cells, that localize in the region of airway smooth muscle, and that increase in number in individuals with asthma. Cross-linking of Fcε;R1 receptors on surfaces of mast cells leads to release of granules that contain smooth muscle contractile agonists, including histamine and leukotrienes.
To test C-027 as a blocker of histamine-induced bronchoconstriction, lung slices were incubated for 2 hours with C-027, and small airway contraction was evaluated after addition of increasing concentrations of histamine.

For another series, the system named is AdrR2 receptor. Briefly: Receptor binding.

Sequence of muscarinic receptor M3 (P20309 whole entry): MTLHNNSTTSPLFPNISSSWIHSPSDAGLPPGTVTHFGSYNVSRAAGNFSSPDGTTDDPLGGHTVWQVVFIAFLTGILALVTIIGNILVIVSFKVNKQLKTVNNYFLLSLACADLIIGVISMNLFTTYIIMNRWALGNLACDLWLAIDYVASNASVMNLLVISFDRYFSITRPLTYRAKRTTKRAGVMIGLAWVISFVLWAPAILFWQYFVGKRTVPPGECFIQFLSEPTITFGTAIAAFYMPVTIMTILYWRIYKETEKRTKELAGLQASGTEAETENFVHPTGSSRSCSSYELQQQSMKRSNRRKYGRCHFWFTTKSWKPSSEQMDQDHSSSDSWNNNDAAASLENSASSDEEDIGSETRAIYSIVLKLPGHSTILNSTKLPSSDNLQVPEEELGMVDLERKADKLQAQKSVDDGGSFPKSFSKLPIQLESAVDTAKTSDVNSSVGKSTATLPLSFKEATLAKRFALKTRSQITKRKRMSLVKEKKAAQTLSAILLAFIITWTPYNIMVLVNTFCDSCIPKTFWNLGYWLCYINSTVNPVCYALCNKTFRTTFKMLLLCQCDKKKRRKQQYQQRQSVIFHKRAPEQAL

For `NCC(=O)NCCN1CCN(CCCN2c3ccccc3Sc3ccc(C(F)(F)F)cc32)CC1` [ICI-735], the “binding to muscarinic receptor M3” value at muscarinic receptor M3 was “weak binding; also recorded: weak or undetectable”. Also, the “effect on action potential duration at 60% (APD60) and APD90” value in series [1] is reported as “lack of effect”. In series [2] (i.p. 1 mg/ml two hours prior to each intranasal challenge, flexivent four hours after last challenge), the “AHR in Af sensitized mice” value is recorded as “significantly inhibited”. For the same compound, the “decrease of lung resistance / airway hyper-responsiveness to methacholine” value in series [2] (intraperitoneal, from 0.1 mg/kg, one hour before or with methacholine challenge, compared with dexamethasone 2.5 mg/kg) was “at least as effective as 2.5 mg/kg dexamethasone; also recorded: decreased airway hyperresponsiveness”; in series [2] (oral (o.g.), 1 mg/kg or 10 mg/kg) it was “effective at decreasing lung resistance”. For the same compound, the “effect on naive animal airway contraction” value in series [2] (naive mice) is “no effect”. The “Brain Penetration Classification” value with MPR1-MDCK was “Low (A-B Papp > 3.0 and Efflux Ratio > 10: Low)”. In series [3] (A-B direction), this compound showed a Papp A→B of 0.23 ×10⁻⁶ cm/s. Moreover, the recovery in series [3] (A-B direction, read-out: % Recovery A-B) is 47%; in series [3] (B-A direction, read-out: % Recovery B-A), 33%. The Papp B→A in series [3] (B-A direction) stood at 28.6 ×10⁻⁶ cm/s. Besides, the efflux ratio in series [3] (efflux ratio) amounted to 124. In addition, the “histamine response at the highest concentration tested” value with human small airway (10 μM) is reported as “does not completely prevent”. Also, in the series on human small airway (2 hours pre-incubation, increasing concentrations of histamine), the “histamine-induced contraction / bronchoconstriction” value is on record as “antagonize; also recorded: blocks; also recorded: prevented”. Besides, the “CCh-induced bronchoconstriction after pretreatment of lung slices” value with human small airway is “antagonize; also recorded: prevents and reverses bronchoconstriction”; in the series on human small airway (listed as C-027), “blocks”. The “airway contraction to IgE/anti-IgE (passive sensitization, mast cell degranulation)” value with human small airway (ICI-735 10 μM, dexamethasone 1 μM, pre-incubated 2 hours) is reported as “antagonize; also recorded: attenuation; also recorded: blocks bronchoconstriction”. Also, the “IL-13-induced airway hyper-responsiveness to CCh” value in the series with human small airway (IL-13 50 ng/mL overnight, compound one hour prior) is reported as “diminishes”. The “relaxation of maximally contracted airway smooth muscle” value with human small airway (in the presence of 30 μM CCh, isoproterenol 10 μM) is listed as “induces relaxation”. Also, in the series on AdrR2 receptor, the “binding to AdrR2 receptor” value was “does not bind; also recorded: weak or undetectable”.

Usually Papp A→B stands for the apparent permeability from the apical to the basolateral side of a cell layer. One may read the Papp B→A as the apparent permeability from the basolateral to the apical side of a cell layer. For orientation: efflux ratio means the permeability from basolateral to apical divided by that in the opposite direction, in the common usage.
